Test results from patent US20200352912A1, “ANTIMICROBIAL COMPOSITIONS AND METHODS OF USING THE SAME” (The Board Of Supervisors Of Louisiana State University And …, priority 2018, published 2020).

How the values were obtained:
[1] = test system: S. aureus NRS383; assay: planktonic antimicrobial assay (OD600 growth); assay type: cell-based, Staphylococcus aureus; conditions: 100 μg/ml (inhibitor-specific concentrations b175), OD600 up to 24 h
Experimental: Effect of COX enzyme inhibitors or PGE2 EP receptor antagonists on microbial growth. The antimicrobial activity of selective COX enzyme inhibitor or PGE2 EP receptor antagonist on the growth of C. albicans DAY185 (A), S. aureus NRS383 (B) and MRSA and MSSA clinical isolates (C). Growth of C. albicans and S. aureus was monitored for up to 24 h in medium alone or supplemented with DMSO or EP receptor antagonists or COX enzyme inhibitor at physiologically relevant concentrations. Data shown are representative of three independent experiments.
C. albicans and S. aureus were grown as described above. […] Cells were grown with shaking as described above, and 1 ml aliquots were removed each hour in duplicate and optical density at 600 nm measured (OD600) by spectrophotometer (Biomate 3S, Thermo Scientific).

[2] = test system: E. coli; assay: spectrum of activity, bacterial growth; assay type: cell-based, Escherichia coli; conditions: 50 μg/ml, 6 h
Experimental: Bacterial growth was monitored for 6 h in medium alone or supplemented with 50 μg/ml of L-161, 982. Data shown is representative of three independent experiments.
Strains and growth conditions. The methicillin-resistant S. aureus strain NRS383 used in all experiments was obtained from the Network on Antimicrobial Resistance in S. aureus (NARSA) data bank. NRS383 is positive for the toxic shock syndrome toxin (tst) and 6-toxin genes. SJ-MRSA 6 and SJ-SA5 are methicillin-resistant (MRSA) and methicillin-sensitive (MSSA) clinical S. aureus strains respectively isolated from a patient's catheter. Other bacterial species used in this study include Escherichia coli (ATCC 25922, clinical isolate), S. epidermidis (ATCC 12228), Klebsiella pneumonia (ATCC 43816), Enterococcus faecalis (ATCC 51299, clinical isolate), and Streptococcus mutans (UA159, 12). S. mutans strain was maintained in brain heart infusion (BHI) broth while the other bacterial species were maintained in Luria-Bertani broth. Frozen stocks were obtained at −80° C. and streaked onto agar plates at 37° C. prior to use. A single colony was transferred to 10 ml of culture broth and shaken at 37° C. overnight. On the following day, the overnight culture was diluted 1:100 in fresh growth medium and shaken at 37° C. for 3 h to obtain cells in mid-log growth phase. S. mutans cultures were grown without agitation in the presence of 5% CO2. […]

[3] = test system: S. aureus; assay: cell membrane integrity by viability (Live/Dead) staining; assay type: cell-based, Staphylococcus aureus; conditions: 6 h incubation
Excerpt: To determine the mechanism of action of L-161, 982 against growth of Gram-positive bacteria, we first looked at its effect on cell membrane integrity using viability staining. […] A previous study had reported that the inhibitory effect of L-161, 982 on the proliferation of skeletal muscle myoblasts was due to its ability to induce production of high levels of intracellular reactive oxygen species (ROS) that could be reversed by co-treatment with the antioxidants, N-acetyl cysteine or sodium ascorbate (25).
Although the prostanoid pathway is not conserved in prokaryotes, we questioned whether L-161, 982 inhibited S. aureus growth by increasing intracellular ROS production. […] Future studies will examine other possible mechanisms of action.

[4] = test system: S. aureus strain 43300; assay: staphyloxanthin assay; assay type: cell-based, Staphylococcus aureus
Experimental: Pigment (staphyloxanthin) levels were measured from cultures grown in Mueller-Hinton broth+/−L-161, 982 at 37° C. for 24 h. A) Macroscopic analysis of S. aureus pigment production. B) Pigment was extracted in methanol and optical density measured at 450 nm. Data shown are representative of two independent experiments. *** p<0.001 control vs. drug-treated.
Strains and growth conditions. The methicillin-resistant S. aureus strain NRS383 was obtained from the Network on Antimicrobial Resistance in S. aureus (NARSA) data bank. As NRS383 has little or no hemolytic activity or pigmentation, S. aureus strain 43300 (ATCC) was used for the hemolysis and staphyloxanthin assays. Frozen stocks were obtained at −80° C. and streaked onto trypticase soy agar (TSA) plates at 37° C. prior to use. A single colony was transferred to 10 ml of trypticase soy broth (TSB) and shaken at 37° C. overnight. On the following day, the overnight culture was diluted 1:100 in fresh growth medium and shaken at 37° C. for 3 h to obtain cells in mid-log growth phase.
Staphyloxanthin Assay. S. aureus was diluted 100-fold in 50 ml of TSB containing 50 or 100 μg/ml of L-161,982 and cultured shaking at 37° C. for 48 h. Control cultures were grown in broth alone. […] Cells from each culture were counted and normalized. […] Optical densities of supernatants were measured at 465 nm using a spectrophotometer.

[5] = biological target: human EP4 receptors (Homo sapiens, UniProt P35408); conditions: cited from earlier work
human EP4 receptors, sequence (P35408 whole entry): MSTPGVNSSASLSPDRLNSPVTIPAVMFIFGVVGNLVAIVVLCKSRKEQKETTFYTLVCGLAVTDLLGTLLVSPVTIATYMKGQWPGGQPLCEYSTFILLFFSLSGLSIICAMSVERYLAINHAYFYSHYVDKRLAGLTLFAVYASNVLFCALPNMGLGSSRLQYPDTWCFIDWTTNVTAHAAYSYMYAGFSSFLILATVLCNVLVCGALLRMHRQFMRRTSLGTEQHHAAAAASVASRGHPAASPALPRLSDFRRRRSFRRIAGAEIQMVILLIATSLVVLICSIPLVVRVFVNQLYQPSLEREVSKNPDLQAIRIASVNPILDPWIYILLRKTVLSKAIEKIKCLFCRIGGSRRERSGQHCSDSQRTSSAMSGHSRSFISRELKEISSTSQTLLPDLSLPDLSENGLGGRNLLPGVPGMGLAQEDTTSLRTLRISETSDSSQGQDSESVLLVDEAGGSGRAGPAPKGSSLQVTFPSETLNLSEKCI

[6] = biological target: FP (Homo sapiens, UniProt P43088); conditions: cited from earlier work
FP, sequence (P43088 whole entry): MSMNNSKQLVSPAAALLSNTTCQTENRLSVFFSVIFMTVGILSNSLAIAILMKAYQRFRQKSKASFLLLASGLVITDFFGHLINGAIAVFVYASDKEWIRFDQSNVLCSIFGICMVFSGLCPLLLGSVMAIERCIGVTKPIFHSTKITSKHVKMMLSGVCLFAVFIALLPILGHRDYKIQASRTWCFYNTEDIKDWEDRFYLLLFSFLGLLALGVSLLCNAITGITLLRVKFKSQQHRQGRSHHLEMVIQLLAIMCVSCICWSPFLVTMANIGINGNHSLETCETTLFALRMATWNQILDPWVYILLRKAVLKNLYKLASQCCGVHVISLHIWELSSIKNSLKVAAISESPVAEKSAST

[7] = test system: PGE2-stimulated bone formation; conditions: 10 mg/kg/day, young rats; cited from earlier work
[8] = 10 mg/kg body weight; cited from earlier work

With `CCCCc1nn(-c2ccccc2C(F)(F)F)c(=O)n1Cc1ccc(-c2ccccc2S(=O)(=O)NC(=O)c2sccc2C)cc1` [L-161, 982, N-[[4′-[[3-Butyl-1,5-dihydro-5-oxo-1-[2-(trifluoromethyl)phenyl]-4H-1,2,4-triazol-4-yl]methyl][1,1′-biphenyl]-2-yl]sulfonyl]-3-methyl-2-thiophenecarboxamide] the “growth of S. aureus” value [1] was “significant inhibitory effect”, the growth inhibitory activity [2] was “No inhibitory effects” and the cell membrane damage [3] was “no evidence of cell membrane damaged”. The “pigmentation (staphyloxanthin)” value [4] was “loss of yellow pigmentation”, the Ki [5] was 24 nM and the Ki [6] was 5600 nM. For the same compound, the “effect on PGE2-stimulated bone formation” value [7] was “suppresses” and the toxic effects [8] was “no apparent toxic effects”.
